Key:
ATR [1] = target: T1, ATR (Mus musculus, UniProt Q9JKK8); settings: in 3T3TopBP1-ER cells; cited from earlier work
T1 construct: endogenous in cells; host or cells: 3T3TopBP1-ER cells

ATR [2] = target: ATR (Homo sapiens, UniProt Q13535); settings: cited from earlier work
human CD34+ cells [3] = experiment: Cell growth curve of edited CD34+ cells; type: cell-based
human CD34+ cells [4] = type: cell-based; settings: for editing efficiency by molecular analyses on genomic DNA: human HSPC, FIG. 8B; for HDR efficiency (GFP+ cells): molecules added one day before viral transduction, FIG. 2B
Procedure: CD34+ cells were either freshly purified from human CB after obtaining informed consent and upon approval by the Ospedale San Raffaele Bioethical Committee, or purchased frozen from Lonza. CD34+ cells were edited according to a previously optimized protocol (Schiroli et al. 2017 supra).
Briefly, 5×10^5 CD34+ cells/ml were stimulated in serum-free StemSpan medium (StemCell Technologies) supplemented with penicillin, streptomycin, glutamine, 1 μM SR-1 (Biovision), […] (STEMCell Technologies), 10 μM PGE2 added only at the beginning of the culture (Cayman), and human early-acting cytokines (SCF 100 ng/ml, Flt3-L 100 ng/ml, TPO 20 ng/ml, and IL-6 20 ng/ml; all purchased from Peprotech). After 3 days of prestimulation, cells were washed with PBS and electroporated using P3 Primary Cell 4D-Nucleofector X Kit and program EO-100 (Lonza). Cells were electroporated with 2.5-1.25 μM of RNPs.
Transduction with AAV6 was performed at a dose of 1-2×10^4 vg/cell 15′ after electroporation. GSE56 mRNA was utilized were indicated at a dose of 150 μg/ml. Gene editing efficiency was measured from cultured cells in vitro 3 days after electroporation by flow cytometry measuring the percentage of cells expressing the GFP marker or by digital droplet PCR analysis designing primers and probe on the junction between the vector sequence and the targeted locus and on control sequences utilized as normalizer as previously described (Schiroli et al. 2017 supra).
For HDR ddPCR, primers and probes were designed on the junction between the vector sequence and the targeted locus and on control sequences used for normalization (human TTC5 genes). Thermal conditions for annealing and extension were adjusted for each specific application as follows: AAVS1/Intron 1 IL2RG HDR 3′ integration junction ddPCR: 55° C. for 30 sec, 72° C. for 2 min. Primers and probes for PCR and ddPCR amplifications are shown below.
CD34^+ cells were purchased frozen from Lonza. CD34^+ cells were edited according to a previously optimised protocol (Schiroli, G. et al (2017) Sci Transl Med 9). Briefly, 1-5×10^5 CD34^+ cells/ml were stimulated in serum-free StemSpan medium (StemCell Technologies) supplemented with penicillin, streptomycin, glutamine, 1 μM of the arylhydrocarbon receptor antagonist SR-1 (Biovision), […] of the pyrimidoindole-derivative UM171 (STEMCell Technologies), 10 μM of the 15-hydroxy PGDH competitive inhibitor dmPGE-2 added only at the beginning of the culture (Cayman), and human early-acting cytokines (SCF 100 ng/ml, Flt3-L 100 ng/ml, TPO 20 ng/ml, and IL-6 20 ng/ml; all purchased from Peprotech). After 3 days of pre-stimulation, cells were washed with PBS and electroporated using P3 Primary Cell 4D-Nucleofector X Kit and program EO-100 (Lonza). Cells were electroporated with 1-1.2 μM of RNPs. Where specified, electroporation mixture was supplemented with Ad5-E4orf1, Ad5-E4orf6/7 and GSE56/Ad5-E4orf6/7 mRNAs, which were respectively utilized at doses of 120, 80 and 200 μg/ml, or Ad5-E1B55K and Ad5-E4orf6 mRNAs were used at 120 and 80 μg/ml. All other adenoviral protein variants were used at standard dose 120 μg/ml. Transduction with AAV-6 was performed 15 min post-electroporation at dose of 1-5×10^4 vg/cell. Where specified, CD34+ cells were stimulated for shorter time in culture (0, 24 or 48 hours) and edited as described above. Gene editing efficiency was measured from cultured cells in vitro at 4 days post-editing by flow cytometry measuring the percentage of cells expressing the GFP reporter gene or by digital droplet PCR analysis designing primers and probe on the junction between the vector sequence and the targeted locus and on control sequence utilised as normaliser as previously described (Schiroli, G. et al (2017) Sci Transl Med 9) and Schiroli et al., Cell Stem Cell 2019. […]

ATM kinase = ATM kinase (Homo sapiens, UniProt Q13315); settings: cited from earlier work
human CD34+ cells [5] = experiment: NHEJ by mismatch-sensitive endonuclease (T7 Endonuclease I) assay in edited CD34+ cells; type: cell-based; settings: bulk cells, 3 days after gene editing; FIG. 2C
Procedure: The percentage of insertions and deletion (indels) introduced by the Non Homologous End Joining (NHEJ) repair pathway on the nucleases target site was measured by a mismatch-sensitive endonuclease assay (PCR-based amplification of the targeted locus followed by digestion with T7 Endonuclease I; digested DNA fragments were resolved and quantified by capillary electrophoresis on LabChip GX Touch HT, Perkin Elmer) The levels of NHEJ-induced mutations were used as surrogate readout for scoring nucleases activity.
For molecular analyses, genomic DNA was isolated with DNeasy Blood & Tissue Kit or QIAamp DNA Micro Kit (QIAGEN) according to the number of cells available. Nuclease activity (IL2RG intron 1, AAVS1) was measured by mismatch-sensitive endonuclease assay by PCR-based amplification of the targeted locus followed by digestion with T7 Endonuclease I (NEB) according to the manufacturer's instructions. Digested DNA fragments were resolved and quantified by capillary electrophoresis on LabChip GX Touch HT (Perkin Elmer) according to the manufacturer's instructions.
For molecular analyses, genomic DNA was isolated with DNeasy Blood & Tissue Kit or QIAamp DNA Micro Kit (QIAGEN) according to the number of cells available. […] Digested DNA fragments were resolved and quantified by capillary electrophoresis on LabChip GX Touch HT (Perkin Elmer) according to the manufacturer's instructions.

[6] = DMSO and ethanol; cited from earlier work
human CD34+ cells [7] = experiment: Cell cycle analysis by Hoechst 33342 staining; type: cell-based; settings: bulk treated cells; 12-24 hours; FIG. 14H
Procedure: Cell cycle was analysed by flow cytometry (CytoFLEX LX; Beckman Coulter) at 12-24 hours post-editing by collecting 0.5-1×10^5 total HSPCs in culture. Cells were washed with PBS+2% FBS and stained by using 10 μg/ml Hoechst 33342 (Sigma-Aldrich) in PBS+2% FBS for 0.5-1 hour in final volume equal to 200 μl.

human CD34+ cells [8] = experiment: CFU-C / colony forming cell assay of edited CD34+ cells; type: cell-based
[9] = tested on: human CD34+ cells transplanted into NSG mice; experiment: Xenotransplantation of edited human CD34+ cells in NSG mice; type: in vivo; settings: AAVS1; T0eq=3×10^5/mouse; FIG. 17B
Procedure: For transplantation, 3×10^5 CD34+ cells treated for editing at day 5 of culture were injected intravenously into NSG mice after sub-lethal irradiation (150-180 cGy). Sample size was determined by the total number of available treated cells. Mice were attributed to each experimental group randomly. Human CD45+ cell engraftment and the presence of gene-edited cells were monitored by serial collection of blood from the mouse tail and, at the end of the experiment (>20 weeks after transplantation), BM and spleen were harvested and analyzed.
NOD-SCID-IL2Rg^−/− (NSG) mice were purchased from The Jackson Laboratory and were maintained in specific-pathogen-free (SPF) conditions. The procedures involving animals were designed and performed with the approval of the Animal Care and Use Committee of the San Raffaele Hospital (IACUC #749) and communicated to the Ministry of Health and local authorities according to Italian law. For transplantation, 1.5-3×10^5 (for primary) or 2×10^6 (for secondary) CD34^+ treated cells at 24 hours post-editing protocol were injected intravenously into NSG mice after sub-lethal irradiation (180 cGy). Sample size was determined by the total number of available treated cells. Mice were attributed to each experimental group randomly. Human CD45^+ cell engraftment and the percentage of edited GFP^+ cells were monitored by serial collection of blood from the mouse tail over the weeks post-transplantation and at the end of the experiment (18-20 weeks post-transplantation) both spleen and bone-marrow were harvested and analysed.

ATR (Homo sapiens, UniProt Q13535), sequence (Q13535 whole entry): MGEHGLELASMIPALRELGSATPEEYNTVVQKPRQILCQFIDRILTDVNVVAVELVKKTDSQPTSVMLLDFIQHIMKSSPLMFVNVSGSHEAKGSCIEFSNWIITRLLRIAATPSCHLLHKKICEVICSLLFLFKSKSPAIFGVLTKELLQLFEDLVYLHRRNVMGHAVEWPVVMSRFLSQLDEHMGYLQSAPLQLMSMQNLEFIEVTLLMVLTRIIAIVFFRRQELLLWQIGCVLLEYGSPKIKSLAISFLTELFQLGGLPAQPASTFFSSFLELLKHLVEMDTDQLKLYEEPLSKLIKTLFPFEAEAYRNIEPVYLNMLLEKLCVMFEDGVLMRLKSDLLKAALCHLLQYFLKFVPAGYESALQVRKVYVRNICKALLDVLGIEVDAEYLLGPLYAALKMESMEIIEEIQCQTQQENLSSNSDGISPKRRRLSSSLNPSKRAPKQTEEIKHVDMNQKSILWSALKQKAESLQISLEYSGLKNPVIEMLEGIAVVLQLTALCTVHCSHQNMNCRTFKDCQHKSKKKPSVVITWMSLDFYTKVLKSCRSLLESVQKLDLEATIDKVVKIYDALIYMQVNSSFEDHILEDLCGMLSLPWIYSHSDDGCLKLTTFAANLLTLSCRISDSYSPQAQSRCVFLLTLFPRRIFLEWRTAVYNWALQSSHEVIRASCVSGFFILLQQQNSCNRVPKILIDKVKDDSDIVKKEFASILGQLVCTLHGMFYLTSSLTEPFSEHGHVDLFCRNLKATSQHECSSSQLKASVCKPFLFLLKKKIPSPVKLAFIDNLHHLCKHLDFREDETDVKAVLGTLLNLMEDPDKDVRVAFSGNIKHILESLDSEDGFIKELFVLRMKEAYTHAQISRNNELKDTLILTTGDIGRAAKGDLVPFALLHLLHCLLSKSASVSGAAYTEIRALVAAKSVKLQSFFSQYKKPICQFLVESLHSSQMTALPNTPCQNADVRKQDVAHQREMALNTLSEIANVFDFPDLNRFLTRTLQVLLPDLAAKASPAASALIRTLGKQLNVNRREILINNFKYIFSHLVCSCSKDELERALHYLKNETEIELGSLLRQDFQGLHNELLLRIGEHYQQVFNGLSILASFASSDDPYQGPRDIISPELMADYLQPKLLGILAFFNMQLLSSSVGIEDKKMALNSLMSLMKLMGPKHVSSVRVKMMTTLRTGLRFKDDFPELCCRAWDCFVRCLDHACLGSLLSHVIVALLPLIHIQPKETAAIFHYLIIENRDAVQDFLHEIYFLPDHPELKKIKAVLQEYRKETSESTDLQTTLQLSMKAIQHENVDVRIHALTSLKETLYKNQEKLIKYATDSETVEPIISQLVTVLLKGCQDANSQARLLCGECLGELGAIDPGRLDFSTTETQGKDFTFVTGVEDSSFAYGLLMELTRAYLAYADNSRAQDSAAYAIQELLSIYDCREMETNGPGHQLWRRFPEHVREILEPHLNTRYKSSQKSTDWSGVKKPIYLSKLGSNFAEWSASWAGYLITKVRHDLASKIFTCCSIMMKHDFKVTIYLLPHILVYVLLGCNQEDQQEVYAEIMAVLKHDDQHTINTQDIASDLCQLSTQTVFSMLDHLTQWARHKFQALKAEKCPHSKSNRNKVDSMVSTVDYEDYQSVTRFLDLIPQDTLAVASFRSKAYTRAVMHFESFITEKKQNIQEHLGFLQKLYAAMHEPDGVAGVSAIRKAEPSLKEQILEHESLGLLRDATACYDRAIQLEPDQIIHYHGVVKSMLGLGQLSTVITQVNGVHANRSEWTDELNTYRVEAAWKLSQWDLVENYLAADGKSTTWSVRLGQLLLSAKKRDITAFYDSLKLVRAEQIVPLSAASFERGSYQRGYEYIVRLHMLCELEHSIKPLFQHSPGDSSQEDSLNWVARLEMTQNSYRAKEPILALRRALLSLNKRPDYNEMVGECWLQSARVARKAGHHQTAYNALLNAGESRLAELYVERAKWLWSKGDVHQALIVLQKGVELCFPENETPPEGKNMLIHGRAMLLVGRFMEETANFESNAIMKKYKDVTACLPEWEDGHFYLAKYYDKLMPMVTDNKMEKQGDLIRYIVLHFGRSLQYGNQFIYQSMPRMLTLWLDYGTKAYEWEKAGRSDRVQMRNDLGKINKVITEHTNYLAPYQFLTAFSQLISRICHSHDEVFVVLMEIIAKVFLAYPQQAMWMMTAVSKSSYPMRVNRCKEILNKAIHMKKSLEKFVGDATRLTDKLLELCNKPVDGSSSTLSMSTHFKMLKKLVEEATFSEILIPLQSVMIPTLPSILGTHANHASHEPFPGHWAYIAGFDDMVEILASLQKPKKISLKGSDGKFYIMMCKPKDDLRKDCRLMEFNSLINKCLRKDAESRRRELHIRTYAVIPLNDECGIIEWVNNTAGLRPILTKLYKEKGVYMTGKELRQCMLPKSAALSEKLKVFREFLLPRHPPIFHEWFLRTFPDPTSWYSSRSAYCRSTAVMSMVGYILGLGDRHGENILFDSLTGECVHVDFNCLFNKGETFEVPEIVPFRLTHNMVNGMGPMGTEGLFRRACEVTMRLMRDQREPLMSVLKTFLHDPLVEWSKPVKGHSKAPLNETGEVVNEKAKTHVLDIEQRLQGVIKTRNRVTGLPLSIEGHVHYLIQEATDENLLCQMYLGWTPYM
ATR (Homo sapiens, UniProt Q13535), sequence (Q8WXE1 whole entry partner): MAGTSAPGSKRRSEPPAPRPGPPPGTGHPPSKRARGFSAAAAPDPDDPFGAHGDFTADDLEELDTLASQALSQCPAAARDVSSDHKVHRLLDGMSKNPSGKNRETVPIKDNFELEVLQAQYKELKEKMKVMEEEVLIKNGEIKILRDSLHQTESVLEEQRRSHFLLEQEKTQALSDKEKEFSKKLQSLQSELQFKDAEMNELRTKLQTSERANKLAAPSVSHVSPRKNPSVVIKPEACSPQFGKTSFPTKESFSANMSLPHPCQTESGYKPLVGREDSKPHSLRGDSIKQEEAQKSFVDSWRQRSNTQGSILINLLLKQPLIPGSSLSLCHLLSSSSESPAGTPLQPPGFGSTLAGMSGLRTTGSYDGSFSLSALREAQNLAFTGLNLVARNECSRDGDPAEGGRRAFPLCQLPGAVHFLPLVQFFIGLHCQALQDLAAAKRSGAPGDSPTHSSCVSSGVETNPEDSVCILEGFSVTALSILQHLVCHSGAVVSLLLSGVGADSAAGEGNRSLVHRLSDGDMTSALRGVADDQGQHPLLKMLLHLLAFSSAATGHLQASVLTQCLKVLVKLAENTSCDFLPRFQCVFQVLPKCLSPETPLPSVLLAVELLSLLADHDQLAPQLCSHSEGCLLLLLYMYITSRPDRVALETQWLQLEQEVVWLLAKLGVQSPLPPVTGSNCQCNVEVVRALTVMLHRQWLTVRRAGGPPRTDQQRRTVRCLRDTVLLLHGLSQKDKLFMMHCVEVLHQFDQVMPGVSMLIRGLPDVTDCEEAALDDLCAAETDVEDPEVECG

In the case of `Cn1c(=O)n(-c2ccc(C(C)(C)C#N)cc2)c2c3cc(-c4cnc5ccccc5c4)ccc3ncc21` [BEZ235], the IC50 (ATR [1]) is listed as ~21 nM.

For `COc1cc2ncnc(-n3nc(-c4ccccn4)nc3N)c2cc1OC` [CP-466722], the “effect on ATR” value (ATR [2]) is listed as “does not affect ATR”.

In the case of “E1B55K and E4orf6: combination of adenoviral proteins E1B55K (SEQ ID No. 15) and E4orf6 (SEQ ID No. 13), delivered as mRNAs”, the “growth curve of treated cells” value (human CD34+ cells [3]; FIG. 8D) is reported as “lower compared to the standard”, the “GFP expression from the AAV6 donor” value (human CD34+ cells [4]; FIG. 15A) is reported as “increased significantly the GFP expression” and the “HDR-mediated integrations at the targeted AAVS1 locus compared to standard” value (human CD34+ cells [4]; FIG. 15B) is reported as “reducing HDR-mediated integrations”. The “editing efficiency by molecular analyses on genomic DNA” value (human CD34+ cells [4]) was “not effective in increasing the editing efficiency” and the “transient increase in the fraction of GFP+ cells” value (human CD34+ cells [4]; mainly most primitive HSPC compartment, AAVS1, FIG. 8A) was “up to 1.45 fold”.

In the case of `O=C(NC(NC(=S)Nc1ccc(F)c([N+](=O)[O-])c1)C(Cl)(Cl)Cl)C(c1ccccc1)c1ccccc1` (stereo not shown) [CGK 733], the IC50 (ATM kinase) is given as ~200 nM and the IC50 (ATR [2]) is given as ~200 nM.

For `Cc1ccc(C(=O)Cn2c3c(sc2=N)CCCC3)cc1` [pifithrin-α, reference compound], the “HDR efficiency (GFP+ cells)” value (human CD34+ cells [4]; 3 days after gene editing) was “increase in HDR efficiency”.

For `Cc1ccc(-c2cn3c4c(sc3n2)CCCC4)cc1` [pifithrin-α cyclic, reference compound], the “increase in DNA repair by NHEJ” value (human CD34+ cells [5]) was “two-fold”, the cellular toxicity (human CD34+ cells [4]) was “lowest cellular toxicity” and the “increase in gene editing in the most primitive CD34+ CD133+ CD90+ cell compartment” value (human CD34+ cells [4]; 3 days after gene editing, FIG. 2C) was “two-fold”. For the same molecule, the “HDR efficiency (GFP+ cells)” value (human CD34+ cells [4]; 3 days after gene editing) was “increase in HDR efficiency”.

In the case of `O=c1cc(-c2cccc3c2Sc2ccccc2S3)oc(N2CCOCC2)c1` [KU-55933], the solubility [6] is given as “soluble in DMSO and ethanol”.

In the case of `N=c1sc2c(n1CC(=O)c1ccc([N+](=O)[O-])cc1)CCCC2` [pifithrin-α p-nitro, reference compound], the “HDR efficiency (GFP+ cells)” value (human CD34+ cells [4]; 3 days after gene editing) is reported as “increase in HDR efficiency”.

B1: E4orf1: adenoviral protein from adenovirus serotype 5 E4 gene (SEQ ID No. 1), delivered as mRNA (protein)
chain: MAAAVEALYVVLEREGAILPRQEGFSGVYVFFSPINFVIPPMGAVMLSLRLRVCIPPGYFGRFLALTDVNQPDVFTESYIMTPDMTEELSVVLFNHGDQFFYGHAGMAVVRLMLIRVVFPVVRQASNV
modifications: delivered as mRNA; example amino acid sequence of Ad5-E4orf1
For B1, the “cell cycle states (G1 to S/G2/M)” value (human CD34+ cells [7]) was “lower and not significant”, the “growth curve of treated cells compared to standard and E4orf6/7 alone” value (human CD34+ cells [3]; FIG. 7D) was 4 fold and the “cell growth compared to standard RNP+AAV6” value (human CD34+ cells [3]; days post-editing, FIG. 14B) was “about 2 fold”. For the same molecule, the “targeting efficiency versus mRNA dose” value (human CD34+ cells [4]; AAVS1, different mRNA doses, FIG. 6D) was “dose dependent increase in the targeting efficiency”, the “increase of GFP expression compared to standard RNP+AAV6” value (human CD34+ cells [4]; AAVS1, most primitive compartment (CD34+133+90+ / CD90+), 96 hours, FIG. 14C) was “up to 1.3 fold” and the “mean increase in the percentage of targeted primitive HSPC” value (human CD34+ cells [4]; best performing mRNA dose, AAVS1, FIG. 6D) was 1.5 fold. The “editing efficiency by molecular analyses on genomic DNA” value (human CD34+ cells [4]) was “reproducibly able to boost editing”, the “mean increase in the fraction of GFP+ cells compared to the standard” value (human CD34+ cells [4]; side-by-side, AAVS1, 4 days, FIG. 7A) was 1.2 fold and the “increase in number of myeloid and erythroid colony forming units (CFU) compared to standard” value (human CD34+ cells [8]; FIG. 7C) was 3 fold. The “erythroid and myeloid clonogenic output compared to standard protocol” value (human CD34+ cells [8]; FIG. 14G) was “improved”, the number of colonies (human CD34+ cells [8]; among E4orf1 serotype variants, FIG. 21D) was “highest number of colonies” and the “human CD45+ cell engraftment in bloodstream, between groups” value [9] was “did not show any statistical significance”.

Source: patent US12558435B2, “Transient inhibition of p53 in gene therapy” (Ospedale San Raffaele S.R.L., priority 2018, dated 2026)
